Measurements taken from patent publication US11178869B2, “Microbiocidal quinoline (thio)carboxamide derivatives” (priority 2017, dated 2021).

What was measured:
[1] = system: Botryotinia fuckeliana (Botrytis cinerea); experiment: Botryotinia fuckeliana (Botrytis cinerea) / liquid culture (gray mould); assay type: cell-based; conditions: 72 h, 200 ppm, compared to untreated control, growth inhibition photometrically 3-4 days after application, read-out: disease control
[2] = system: Fusarium culmorum; experiment: microbe, parasite or virus in culture; assay type: cell-based; conditions: read-out: disease control
[3] = system: Monographella nivalis (Microdochium nivale); experiment: Monographella nivalis (Microdochium nivale) / liquid culture (foot rot cereals); assay type: cell-based; conditions: 200 ppm, compared to untreated control, growth inhibition photometrically 4-5 days after application, read-out: disease control
[4] = system: Magnaporthe grisea (Pyricularia oryzae); experiment: microbe, parasite or virus in culture; assay type: cell-based; conditions: read-out: control of Magnaporthe grisea
[5] = system: Pyrenophora teres; experiment: Pyrenophora teres / barley / leaf disc preventative (net blotch); assay type: in vivo, Pyrenophora teres on barley leaf segments cv. Hasso; conditions: foliar, barley leaf segments, compared to untreated control, 5-7 days after application
[6] = system: Glomerella lagenarium (Colletotrichum lagenarium); experiment: Glomerella lagenarium (Colletotrichum lagenarium) / liquid culture (anthracnose); assay type: cell-based; conditions: Colletotrichum orbiculare; 200 ppm; compared to untreated control; growth inhibition photometrically 3-4 days after application; read-out: disease control
[7] = system: Gaeumannomyces graminis; experiment: Gaeumannomyces graminis / liquid culture (take-all of cereals); assay type: cell-based; conditions: compared to untreated control, 4-5 days after application
[8] = system: Sclerotinia sclerotiorum; experiment: Sclerotinia sclerotiorum / liquid culture (cottony rot); conditions: read-out: control of Sclerotinia sclerotiorum
Experimental: Sclerotinia sclerotiorum/Liquid Culture (Cottony Rot)
Mycelia fragments of a newly grown liquid culture of the fungus are directly mixed into nutrient broth (Vogels broth). After placing a (DMSO) solution of test compound into a microtiter plate (96-well format) the nutrient broth containing the fungal material is added. The test plates are incubated at 24° C. and the inhibition of growth is determined photometrically 3-4 days after application.

[9] = system: Fusarium culmorum; experiment: whole plant or invertebrate; assay type: in vivo, Fusarium culmorum on wheat spikelets cv. Monsun; conditions: in Triticum aestivum, 144 h, read-out: control of Fusarium culmorum

| Structure (SMILES) | inhibition of growth at 200 ppm [1] [%] | inhibition of growth at 200 ppm [2] [%] | inhibition of growth at 200 ppm [3] [%] | inhibition of growth at 20 ppm [4] [%] | pest or weed control at 200 ppm [5] [%] | inhibition of growth at 200 ppm [6] [%] | inhibition of growth at 20 ppm [7] [%] | melting point [°C] | inhibition of growth at 20 ppm [8] [%] | pest or weed control at 200 ppm [9] [%] |
| --- | --- | --- | --- | --- | --- | --- | --- | --- | --- | --- |
| Cc1cccc2cc(C(=O)NC(C#Cc3ccccc3)C(C)C)cnc12 (centres unmarked) [Compound F-1, N-(1-isopropyl-3-phenyl-prop-2-ynyl)-8-methyl-quinoline-3-carboxamide] | ≥ 80 | ≥ 80 | ≥ 80 | ≥ 80 | ≥ 80 | – | – | – | – | – |
| CC(C)(C)C(C#Cc1ccccc1)NC(=O)c1cnc2c(F)cccc2c1 (centres unmarked) [Compound F-5, N-(1-tert-butyl-3-phenyl-prop-2-ynyl)-8-fluoro-quinoline-3-carboxamide] | ≥ 80 | ≥ 80 | ≥ 80 | ≥ 80 | – | ≥ 80 | ≥ 80 | 179 to 181 | ≥ 80 | – |
| CC(C)CC(C)(C#Cc1ccccc1)NC(=O)c1cnc2c(F)cccc2c1 (centres unmarked) [Compound F-7, N-[1,3-dimethyl-1-(2-phenylethynyl)butyl]-8-fluoro-quinoline-3-carboxamide] | ≥ 80 | ≥ 80 | ≥ 80 | ≥ 80 | – | ≥ 80 | ≥ 80 | 138 to 141 | ≥ 80 | ≥ 80 |
| CCC(C)(C#Cc1ccccc1)NC(=O)c1cnc2c(C)cccc2c1 (centres unmarked) [Compound F-9, N-(1-ethyl-1-methyl-3-phenyl-prop-2-ynyl)-8-methyl-quinoline-3-carboxamide] | ≥ 80 | ≥ 80 | ≥ 80 | ≥ 80 | – | ≥ 80 | – | 135 to 137 | ≥ 80 | ≥ 80 |
| CCC(C)(C#Cc1ccccc1)NC(=O)c1cnc2c(C#N)cccc2c1 (centres unmarked) [Compound F-10, 8-cyano-N-(1-ethyl-1-methyl-3-phenyl-prop-2-ynyl)quinoline-3-carboxamide] | ≥ 80 | ≥ 80 | ≥ 80 | ≥ 80 | – | ≥ 80 | ≥ 80 | 172 to 174 | ≥ 80 | ≥ 80 |
| Cc1ccc(C#CC(C)(C)NC(=O)c2cnc3c(F)cccc3c2)cc1 [Compound F-21, N-[1,1-dimethyl-3-(p-tolyl)prop-2-ynyl]-8-fluoro-quinoline-3-carboxamide] | ≥ 80 | ≥ 80 | ≥ 80 | – | ≥ 80 | ≥ 80 | – | – | – | – |
| COc1cccc(C#CC(C)(C)NC(=O)c2cnc3c(F)cccc3c2)c1 [Compound F-29, 8-fluoro-N-[3-(3-methoxyphenyl)-1,1-dimethyl-prop-2-ynyl]quinoline-3-carboxamide] | ≥ 80 | ≥ 80 | ≥ 80 | – | ≥ 80 | ≥ 80 | – | – | – | ≥ 80 |
| Cc1ccc(C#CC(C)(C)NC(=O)c2cnc3c(F)cccc3c2)s1 [Compound F-35, N-[1,1-dimethyl-3-(5-methyl-2-thienyl)prop-2-ynyl]-8-fluoro-quinoline-3-carboxamide] | ≥ 80 | ≥ 80 | ≥ 80 | – | ≥ 80 | – | – | – | – | – |
| CC(C)C[C@@](C)(C#Cc1ccccc1)NC(=O)c1cnc2c(F)cccc2c1 [Compound G-5, N-[(1S)-1,3-dimethyl-1-(2-phenylethynyl)butyl]-8-fluoro-quinoline-3-carboxamide] | ≥ 80 | ≥ 80 | ≥ 80 | ≥ 80 | – | ≥ 80 | ≥ 80 | 124 to 127 | ≥ 80 | – |
